US20020028788A1, “Vaginal active agent delivery procedures and formulations thereof” (priority 1998, published 2002)
Marks after values point to notes of the source that are not given here. Each block holds one compound with its values, some of them ahead of it.

Key:
[1] = Plasma oestradiol concentration and pharmacokinetics following vaginal or intramuscular administration; assay type: in vivo; details: cattle, oestradiol benzoate
Experimental: Error bars are standard error means (n=3).
FIG. 2 is a plasma oestradiol concentrations following vaginal administration of 10 mg oestradiol benzoate (open square), 10 mg oestradiol benzoate with 1:1 molar ratio β-cyclodextrin (open diamond), 10 mg oestradiol benzoate with 1:1 molar ratio hydroxypropyl β-cyclodextrin (open circle) or 10 mg oestradiol benzoate with 1:1 molar ratio γ-cyclodextrin (open triangle). Error bars are standard error means (n=4).
Error bars are standard error means (n=4).

cattle [2] = details: past attempts; vaginal administration by capsule; doses typically 10 times higher than intra-muscular; cited from earlier work
cattle [3] = test: Follicular dynamics and oestrus following vaginal oestradiol 17β or intramuscular oestradiol benzoate; assay type: in vivo; details: for Follicle wave turnover (i.e. DF3) / No follicle wave turnover (i.e. no DF3): number of animals
[4] = 2 mg oestradiol benzoate, intramuscular administration
[5] = 2 mg oestradiol benzoate, intramuscular administration, group n = 7
[6] = 2.5 mg oestradiol 17β, vaginal administration
[7] = 5.0 mg oestradiol 17β, vaginal administration
[8] = 2.5 mg oestradiol 17β, vaginal administration, group n = 8
[9] = 5.0 mg oestradiol 17β, vaginal administration, group n = 8

- absorption following vaginal administration [1]: poor and variable absorption
SMILES: C[C@]12CC[C@@H]3c4ccc(OC(=O)c5ccccc5)cc4CC[C@H]3[C@@H]1CC[C@@H]2O [oestradiol benzoate]
- oestrus expression and fertility (cattle [2]): poor oestrus expression and poor fertility
- Age of ovulatory DF3 (cattle [3]; [4]): 6.0 ± 0.5^ d
- Day DF2 emerged (cattle [3]; [4]): 9.6 ± 0.6^a
- Day DF3 emerged (cattle [3]; [4]): 17.0 ± 0.4 ^
- Diameter DF2 on Day 13 (cattle [3]; [4]): 9.6 ± 1.0^a mm
- Diameter of ovulatory DF3 (cattle [3]; [4]): 14.2 ± 0.4 ^ mm
- Growth of DF2 from Day 13-17 (cattle [3]; [4]): −0.6 ± 0.7^b mm
- Day of oestrus (cattle [3]; 2 mg oestradiol benzoate, intramuscular administration, n = 7): 22.6 ± 0.2 (n = 7)
- Follicle wave turnover (i.e. DF3) (cattle [3]; [5]): 6
- No follicle wave turnover (i.e. no DF3) (cattle [3]; [5]): 1

SMILES: C[C@]12CC[C@@H]3c4ccc(O)cc4CC[C@H]3[C@@H]1CC[C@@H]2O [oestradiol 17β]
- Age of ovulatory DF2 (cattle [3]; [6]): 12.0 ± 0.6 ^ d
- Age of ovulatory DF3 (cattle [3]; [6]): 6 days
- Day DF2 emerged (cattle [3]; [6]): 9.9 ± 0.4^a
- Diameter DF2 on Day 13 (cattle [3]; [6]): 9.9 ± 0.5^a mm
- Diameter of ovulatory DF2 (cattle [3]; [6]): 15.6 ± 0.7 ^ mm
- Diameter of ovulatory DF3 (cattle [3]; [6]): 12 mm
- Growth of DF2 from Day 13-17 (cattle [3]; [6]): 2.4 ± 0.6^a mm
- Day of oestrus (cattle [3]; 2.5 mg oestradiol 17β, vaginal administration, n = 7): 22.0 ± 0.0 (n = 7)
- Age of ovulatory DF2 (cattle [3]; [7]): 11.5 ± 0.5 ^ d
- Age of ovulatory DF3 (cattle [3]; [7]): 7.0 ± 0.5^ d
- Day DF2 emerged (cattle [3]; [7]): 10.0 ± 0.6^a
- Day DF3 emerged (cattle [3]; [7]): 15.7 ± 0.6 ^
- Diameter DF2 on Day 13 (cattle [3]; [7]): 9.3 ± 0.8^a mm
- Diameter of ovulatory DF2 (cattle [3]; [7]): 17.0 ± 1.0 ^ mm
- Diameter of ovulatory DF3 (cattle [3]; [7]): 13.7 ± 0.7 ^ mm
- Growth of DF2 from Day 13-17 (cattle [3]; [7]): 0.9 ± 0.8^ab mm
- Day of oestrus (cattle [3]; 5.0 mg oestradiol 17β, vaginal administration, n = 8): 22.0 ± 0.0 (n = 8)
- Follicle wave turnover (i.e. DF3) (cattle [3]; [8]): 3
- No follicle wave turnover (i.e. no DF3) (cattle [3]; [8]): 5
- Follicle wave turnover (i.e. DF3) (cattle [3]; [9]): 6
- No follicle wave turnover (i.e. no DF3) (cattle [3]; [9]): 2
- influence on follicular dynamics (cattle [3]; vaginal administration, 5 mg oestradiol 17β and γ-cyclodextrin in molar ratio 0.5:1, compared with i.m. 2 mg oestradiol benzoate): influences follicular dynamics in a similar manner
